Among the data in patent publication US10406146B2, “Heterocyclic compound” (TAKEDA PHARMACEUTICAL COMPANY LIMITED, priority 2015, dated 2019) are inhibition values, retold here.

What all share (assay type): biochemical
One assay concerns the target T1, HDAC6 enzyme (Homo sapiens, UniProt Q9UBN7).
T1 construct: transducing full length HDAC1 and HDAC6 genes into Sf-9 insect cells; GST; purchased SignalChem; host or cells: Sf-9 insect cells
T1 sequence (Q9UBN7 1-1215): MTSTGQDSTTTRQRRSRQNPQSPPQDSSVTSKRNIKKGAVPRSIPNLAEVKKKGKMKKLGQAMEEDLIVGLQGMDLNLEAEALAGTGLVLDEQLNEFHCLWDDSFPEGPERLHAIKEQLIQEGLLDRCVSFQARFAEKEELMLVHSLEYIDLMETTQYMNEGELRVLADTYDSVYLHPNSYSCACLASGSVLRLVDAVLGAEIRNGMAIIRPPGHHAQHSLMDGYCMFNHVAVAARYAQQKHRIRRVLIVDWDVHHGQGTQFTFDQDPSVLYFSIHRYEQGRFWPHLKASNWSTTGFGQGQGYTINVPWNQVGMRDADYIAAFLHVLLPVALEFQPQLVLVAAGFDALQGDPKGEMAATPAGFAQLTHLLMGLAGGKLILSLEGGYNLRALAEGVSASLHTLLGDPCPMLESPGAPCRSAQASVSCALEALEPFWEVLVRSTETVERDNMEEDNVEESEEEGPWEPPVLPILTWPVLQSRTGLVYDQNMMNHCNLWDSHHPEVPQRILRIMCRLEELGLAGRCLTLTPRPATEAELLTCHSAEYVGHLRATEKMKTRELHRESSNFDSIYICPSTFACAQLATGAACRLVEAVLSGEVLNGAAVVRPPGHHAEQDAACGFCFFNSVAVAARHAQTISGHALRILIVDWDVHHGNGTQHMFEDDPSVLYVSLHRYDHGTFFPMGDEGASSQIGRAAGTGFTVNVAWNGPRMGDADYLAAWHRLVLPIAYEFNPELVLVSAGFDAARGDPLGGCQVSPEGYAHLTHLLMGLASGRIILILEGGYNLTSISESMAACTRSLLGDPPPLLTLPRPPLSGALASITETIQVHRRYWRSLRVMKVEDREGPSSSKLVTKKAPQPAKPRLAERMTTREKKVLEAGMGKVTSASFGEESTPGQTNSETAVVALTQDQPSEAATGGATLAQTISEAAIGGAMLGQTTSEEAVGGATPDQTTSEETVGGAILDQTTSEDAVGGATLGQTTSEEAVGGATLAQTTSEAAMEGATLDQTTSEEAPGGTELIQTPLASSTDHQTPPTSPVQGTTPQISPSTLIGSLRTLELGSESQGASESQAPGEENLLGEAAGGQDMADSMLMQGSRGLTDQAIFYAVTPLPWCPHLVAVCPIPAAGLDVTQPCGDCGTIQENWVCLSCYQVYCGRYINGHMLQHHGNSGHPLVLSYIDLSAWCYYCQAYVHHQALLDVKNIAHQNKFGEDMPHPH
The assay can be described thus: HDAC6 enzyme inhibitory assay (HDAC-Glo I/II Assay kit). Conditions: wells without enzyme = 100% inhibition, read-out: HDAC6 inhibitory rate (%) (1 μM). The procedure:
(§1) HDAC1/6 Enzyme Inhibitory Assay
(§2) HDAC1 enzyme and HDAC6 enzyme each prepared by transducing full length HDAC1 and HDAC6 genes into Sf-9 insect cells and purifying by GST affinity column were purchased from SignalChem. Using these enzymes, HDAC1 and/or HDAC6 enzyme inhibitory activities of the compound of the present invention were evaluated. Enzymes were used after preserved at −70° C. HDAC1 or HDAC6 enzyme inhibitory activity of the compound of the present invention was measured using HDAC-Glo™ I/II Assay kit (Promega) according to the following experimental method. The test compound diluted with assay buffer (24 mM Tris-HCl (pH 7.5), 1 mM MgCl2, 0.35 mM KCl, 135 mM NaCl, 0.6 mM Glutathione, 0.01% Tween-20) was added to a 384-well plate by each 2 μL. Then, HDAC1 or HDAC6 enzyme solution diluted with assay buffer was added thereto by each 4 μL, and the plate was incubated at room temperature for 60 min. After incubated, HDAC substrate-Developer solution prepared according to Promega protocol attached to the assay kit was added to the 384-well plate by each 2 μL, and the enzyme reaction was started. After reacting at room temperature for 20 min, luminescence level was measured using plate reader Envision (PerkinElmer). The inhibitory activity of each compound was calculated as a relative activity value when luminescence level in wells without enzyme is considered as 100% inhibition.

The target in a further assay is T2, HDAC1 enzyme (Homo sapiens, UniProt Q13547).
T2 construct: transducing full length HDAC1 and HDAC6 genes into Sf-9 insect cells; GST; purchased SignalChem; host or cells: Sf-9 insect cells
The assay can be described thus: HDAC1 enzyme inhibitory assay (HDAC-Glo I/II Assay kit). Conditions: wells without enzyme = 100% inhibition, read-out: HDAC1 inhibitory rate (%) (1 μM). The method, then:
as §1, §2

The target of another assay is T3, HDAC9 enzyme (Homo sapiens, UniProt Q9UKV0).
T3 construct: transducing full length HDAC9 gene into Sf-9 insect cells; made in house; host or cells: Sf-9 insect cells
As to the kind of experiment: HDAC9 enzyme inhibitory assay (HDAC-Glo class IIa). Conditions: wells without enzyme = 100% inhibition, read-out: HDAC9 inhibitory rate (%) (1 μM). The method, then:
HDAC9 Enzyme Inhibitory Assay
Enzyme was prepared by transducing full length HDAC9 gene into Sf-9 insect cells and purifying by Ni-NTA affinity column, and HDAC9 enzyme inhibitory activity was evaluated. Enzymes were used after preserved at −70° C. HDAC9 enzyme inhibitory activity of the test compound was measured using HDAC-Glo class IIa (Promega) according to the following experimental method. The test compound diluted with assay buffer (24 mM Tris-HCl (pH 7.5), 1 mM MgCl2, 0.35 mM KCl, 135 mM NaCl, 0.6 mM Glutathione, 0.01% Tween-20) was added to a 384-well plate by each 2 μL. Then, HDAC9 enzyme solution diluted with assay buffer was added thereto by each 2 μL, and the plate was incubated at room temperature for 60 min. After incubated, HDAC substrate-Developer solution prepared according to Promega protocol was added to the 384-well plate by each 4 μL, and the enzyme reaction was started. After reacting at room temperature for 20 min, luminescence level was measured using plate reader Envision (PerkinElmer). The inhibitory activity of each compound was calculated as a relative activity value when luminescence level in wells without enzyme is considered as 100% inhibition.

T2 sequence (Q13547 whole entry): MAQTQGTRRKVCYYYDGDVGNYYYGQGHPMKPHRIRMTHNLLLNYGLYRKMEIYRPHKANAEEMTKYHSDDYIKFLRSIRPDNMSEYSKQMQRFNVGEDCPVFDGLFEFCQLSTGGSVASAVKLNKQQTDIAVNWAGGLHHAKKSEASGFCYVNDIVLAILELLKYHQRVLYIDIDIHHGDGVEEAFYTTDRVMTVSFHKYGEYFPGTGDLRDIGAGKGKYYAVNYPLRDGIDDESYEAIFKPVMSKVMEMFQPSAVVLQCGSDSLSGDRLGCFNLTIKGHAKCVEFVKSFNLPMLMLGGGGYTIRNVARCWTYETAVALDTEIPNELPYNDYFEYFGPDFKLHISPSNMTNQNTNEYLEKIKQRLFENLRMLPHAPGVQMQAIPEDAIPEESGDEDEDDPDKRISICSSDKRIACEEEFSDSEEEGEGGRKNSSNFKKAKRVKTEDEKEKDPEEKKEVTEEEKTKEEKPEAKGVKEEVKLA
T3 sequence (Q9UKV0 whole entry, species assumed): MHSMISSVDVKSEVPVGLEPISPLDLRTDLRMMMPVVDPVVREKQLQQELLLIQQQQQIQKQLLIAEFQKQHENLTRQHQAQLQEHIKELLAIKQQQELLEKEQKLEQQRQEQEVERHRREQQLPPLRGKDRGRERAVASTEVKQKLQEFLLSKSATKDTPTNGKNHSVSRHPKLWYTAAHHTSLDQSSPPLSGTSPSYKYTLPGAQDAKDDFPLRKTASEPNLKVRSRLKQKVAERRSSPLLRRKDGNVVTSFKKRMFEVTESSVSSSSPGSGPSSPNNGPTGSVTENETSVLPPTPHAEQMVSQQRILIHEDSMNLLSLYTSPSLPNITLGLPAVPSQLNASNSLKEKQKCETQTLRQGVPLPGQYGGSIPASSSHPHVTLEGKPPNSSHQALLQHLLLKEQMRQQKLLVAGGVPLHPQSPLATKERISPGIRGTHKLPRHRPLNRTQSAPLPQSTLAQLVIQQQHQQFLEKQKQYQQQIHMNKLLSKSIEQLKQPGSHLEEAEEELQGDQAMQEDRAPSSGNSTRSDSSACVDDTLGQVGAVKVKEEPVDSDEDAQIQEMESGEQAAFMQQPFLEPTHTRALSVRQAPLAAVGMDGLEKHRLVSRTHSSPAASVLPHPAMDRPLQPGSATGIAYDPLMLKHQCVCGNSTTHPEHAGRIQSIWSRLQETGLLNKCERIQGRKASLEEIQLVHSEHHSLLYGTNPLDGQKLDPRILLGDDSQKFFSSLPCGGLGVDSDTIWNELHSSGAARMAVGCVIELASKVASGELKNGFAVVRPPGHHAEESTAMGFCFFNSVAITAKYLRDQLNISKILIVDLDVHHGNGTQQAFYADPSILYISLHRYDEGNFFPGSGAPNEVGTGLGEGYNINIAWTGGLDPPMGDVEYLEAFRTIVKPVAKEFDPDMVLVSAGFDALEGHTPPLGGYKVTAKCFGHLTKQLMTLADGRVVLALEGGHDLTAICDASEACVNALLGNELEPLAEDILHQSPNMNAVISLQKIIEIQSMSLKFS

Take `O=C(NCC1CCCCN1C(=O)Nc1ccc(-c2noc(C(F)(F)F)n2)cc1)c1ccc2nccn2c1` (stereo not drawn) [Example 45, N-((1-((4-(5-(trifluoromethyl)-1,2,4-oxadiazol-3-yl)phenyl)carbamoyl)piperidin-2-yl)methyl)imidazo[1,2-a]pyridine-6-carboxamide]: the results for the inhibition at 1 µM on HDAC6 enzyme, on HDAC1 enzyme and on HDAC9 enzyme were 3%, 20% and 93%, respectively.

With `O=C(NCC1CCCCN1C(=O)Nc1ccc(-c2noc(C(F)(F)F)n2)cc1)C1CCOCC1` (stereo not drawn) [Example 51, 2-(((tetrahydro-2H-pyran-4-ylcarbonyl)amino)methyl)-N-(4-(5-(trifluoromethyl)-1,2,4-oxadiazol-3-yl)phenyl)piperidine-1-carboxamide], the figures for the inhibition at 1 µM on HDAC6 enzyme, on HDAC1 enzyme and at HDAC9 enzyme were 8%, 73% and 97%, respectively.

`O=C(NCC1CCCCN1C(=O)Nc1ccc(-c2noc(C(F)(F)F)n2)cc1)Nc1ccccc1` (stereo not drawn) [Example 54, 2-(((phenylcarbamoyl)amino)methyl)-N-(4-(5-(trifluoromethyl)-1,2,4-oxadiazol-3-yl)phenyl)piperidine-1-carboxamide]: the figures for the inhibition at 1 µM at HDAC6 enzyme, on HDAC1 enzyme and on HDAC9 enzyme were 6%, 17% and 89%, respectively.

For `O=C(NCC1CCCCN1C(=O)Nc1ccc(-c2noc(C(F)(F)F)n2)cc1)c1cccnc1` (stereo not drawn) [Example 35, N-((1-((4-(5-(trifluoromethyl)-1,2,4-oxadiazol-3-yl)phenyl)carbamoyl)piperidin-2-yl)methyl)nicotinamide], the values for the inhibition at 1 µM at HDAC6 enzyme, on HDAC1 enzyme and at HDAC9 enzyme were 4%, 58% and 96%, respectively.

With `COc1cccc(C(=O)NCC2CCCCN2C(=O)Nc2ccc(-c3noc(C(F)(F)F)n3)cc2)c1` (stereo not drawn) [Example 24, 2-(((3-methoxybenzoyl)amino)methyl)-N-(4-(5-(trifluoromethyl)-1,2,4-oxadiazol-3-yl)phenyl)piperidine-1-carboxamide], the inhibition at 1 µM was 3% on HDAC6 enzyme, 24% on HDAC1 enzyme and 88% on HDAC9 enzyme.

For the compound `O=C(NCC1CCCCN1C(=O)Nc1ccc(-c2noc(C(F)(F)F)n2)cc1)c1ccccn1` (stereo not drawn) [Example 34, N-((1-((4-(5-(trifluoromethyl)-1,2,4-oxadiazol-3-yl)phenyl)carbamoyl)piperidin-2-yl)methyl)pyridine-2-carboxamide], the inhibition at 1 µM on HDAC6 enzyme turned out to be 4%; on HDAC1 enzyme, 28%; on HDAC9 enzyme, 84%.

Turning to `CN(C)c1cccc(C(=O)NCC2CCCCN2C(=O)Nc2ccc(-c3noc(C(F)(F)F)n3)cc2)c1` (stereo not drawn) [Example 28, 2-(((3-(dimethylamino)benzoyl)amino)methyl)-N-(4-(5-(trifluoromethyl)-1,2,4-oxadiazol-3-yl)phenyl)piperidine-1-carboxamide], the inhibition at 1 µM on HDAC6 enzyme was 2%; on HDAC1 enzyme, 4%; on HDAC9 enzyme it was 86%.

With `Cc1cccc(C(=O)NCC2CCCCN2C(=O)Nc2ccc(-c3noc(C(F)(F)F)n3)cc2)c1` (stereo not drawn) [Example 11, 2-(((3-methylbenzoyl)amino)methyl)-N-(4-(5-(trifluoromethyl)-1,2,4-oxadiazol-3-yl)phenyl)piperidine-1-carboxamide], the inhibition at 1 µM was found to be 5% at HDAC6 enzyme, 20% on HDAC1 enzyme and 90% on HDAC9 enzyme.

Consider `O=C(NCC1CCCCN1C(=O)Nc1ccc(-c2noc(C(F)(F)F)n2)cc1)c1cc(Cl)cc(Cl)c1` (stereo not drawn) [Example 33, 2-(((3,5-dichlorobenzoyl)amino)methyl)-N-(4-(5-(trifluoromethyl)-1,2,4-oxadiazol-3-yl)phenyl)piperidine-1-carboxamide], for which the inhibition at 1 µM on HDAC6 enzyme was 0%; at HDAC1 enzyme it was -5%; on HDAC9 enzyme it was 48%.

Consider `O=C(NCC1CCCCN1C(=O)Nc1ccc(-c2noc(C(F)(F)F)n2)cc1)c1cc[n+]([O-])cc1` (stereo not drawn) [Example 37, N-((1-((4-(5-(trifluoromethyl)-1,2,4-oxadiazol-3-yl)phenyl)carbamoyl)piperidin-2-yl)methyl)isonicotinamide 1-oxide], for which the inhibition at 1 µM amounted to 2% at HDAC6 enzyme, 2% on HDAC1 enzyme and 88% at HDAC9 enzyme.

As for `Cc1cccc(C(=O)NCC2CCCCN2C(=O)Nc2ccc(-c3noc(C(F)(F)F)n3)cc2)n1` (stereo not drawn) [Example 55, 6-methyl-N-((1-((4-(5-(trifluoromethyl)-1,2,4-oxadiazol-3-yl)phenyl)carbamoyl)piperidin-2-yl)methyl)pyridine-2-carboxamide], the inhibition at 1 µM was determined as 2% on HDAC6 enzyme, 31% at HDAC1 enzyme and 85% on HDAC9 enzyme.

As to `O=C(NCC1CCCCN1C(=O)Nc1ccc(-c2noc(C(F)(F)F)n2)cc1)c1ccc(Cl)cc1` (stereo not drawn) [Example 9, 2-(((4-chlorobenzoyl)amino)methyl)-N-(4-(5-(trifluoromethyl)-1,2,4-oxadiazol-3-yl)phenyl)piperidine-1-carboxamide], the figures for the inhibition at 1 µM at HDAC6 enzyme, at HDAC1 enzyme and on HDAC9 enzyme were 3%, 4% and 94%, respectively.

On to `Cc1ccnc(C(=O)NCC2CCCCN2C(=O)Nc2ccc(-c3noc(C(F)(F)F)n3)cc2)c1` (stereo not drawn) [Example 56, 4-methyl-N-((1-((4-(5-(trifluoromethyl)-1,2,4-oxadiazol-3-yl)phenyl)carbamoyl)piperidin-2-yl)methyl)pyridine-2-carboxamide], for which the figures for the inhibition at 1 µM at HDAC6 enzyme, on HDAC1 enzyme and on HDAC9 enzyme were 4%, 25% and 83%, respectively.

In the case of `O=C(NCC1CCCCN1C(=O)Nc1ccc(-c2noc(C(F)(F)F)n2)cc1)c1ccncc1` (stereo not drawn) [Example 36, N-((1-((4-(5-(trifluoromethyl)-1,2,4-oxadiazol-3-yl)phenyl)carbamoyl)piperidin-2-yl)methyl)isonicotinamide], the inhibition at 1 µM at HDAC6 enzyme is 5%; at HDAC1 enzyme it was 63%; on HDAC9 enzyme, 97%.

`O=C(NCC1CCCCN1C(=O)Nc1ccc(-c2noc(C(F)(F)F)n2)cc1)c1ccccc1` (stereo not drawn) [Example 2, 2-((benzoylamino)methyl)-N-(4-(5-(trifluoromethyl)-1,2,4-oxadiazol-3-yl)phenyl)piperidine-1-carboxamide]: the values for the inhibition at 1 µM at HDAC6 enzyme, on HDAC1 enzyme and on HDAC9 enzyme were 10%, 80% and 90%, respectively.
